Conditions: Liquid, Frequency=8 MHz, Dual path-length method

CC(C)C [2-methylpropane]
Conditions | speed of sound [m/s]
240 K, 70153 kPa | 1565.7
240 K, 80160 kPa | 1608.6
240 K, 90167 kPa | 1649.3
240 K, 100174 kPa | 1688
259.99 K, 8108.1 kPa | 1108.7
259.99 K, 15113 kPa | 1166
259.99 K, 30123 kPa | 1271.7
260 K, 402.73 kPa | 1036.8
260 K, 405.47 kPa | 1036.7
260 K, 607.87 kPa | 1038.8
260 K, 1106.4 kPa | 1043.8
260 K, 2104 kPa | 1053.6
260 K, 2107.1 kPa | 1053.6
260 K, 3107.8 kPa | 1063.2
260 K, 4108.4 kPa | 1072.7
260 K, 5109.1 kPa | 1081.9
260 K, 6109.7 kPa | 1091
260 K, 7111 kPa | 1099.9
260 K, 8111.7 kPa | 1108.6
260 K, 9112.4 kPa | 1117.2
260 K, 10113 kPa | 1125.7
260 K, 12615 kPa | 1146.2
260 K, 15116 kPa | 1166
260 K, 17618 kPa | 1185
260 K, 20120 kPa | 1203.5
260 K, 25123 kPa | 1238.6
260 K, 30127 kPa | 1271.7
260 K, 35130 kPa | 1303.1
260 K, 40134 kPa | 1333
260 K, 45137 kPa | 1361.5
260 K, 50140 kPa | 1388.9
260 K, 60147 kPa | 1440.6
260 K, 70154 kPa | 1488.7
260 K, 80161 kPa | 1533.9
260 K, 90168 kPa | 1576.6
260 K, 100175 kPa | 1617.2
280 K, 402.43 kPa | 921.86
280 K, 602.22 kPa | 924.25
280 K, 606.25 kPa | 924.3
280 K, 1103.2 kPa | 930.19
280 K, 2103.9 kPa | 941.79
280 K, 3104.4 kPa | 953.08
280 K, 4105.1 kPa | 964.08
280 K, 5105.7 kPa | 974.8
280 K, 6106.3 kPa | 985.26
280 K, 7107 kPa | 995.5
280 K, 8107.9 kPa | 1005.5
280 K, 9108.6 kPa | 1015.3
280 K, 10109 kPa | 1024.9
280 K, 12611 kPa | 1048
280 K, 15113 kPa | 1070.1
280 K, 17614 kPa | 1091.3
280 K, 20116 kPa | 1111.6
280 K, 25119 kPa | 1150.1
280 K, 30123 kPa | 1186.1
280 K, 35126 kPa | 1220
280 K, 40130 kPa | 1252.1
280 K, 45133 kPa | 1282.6
280 K, 50137 kPa | 1311.8
280 K, 60144 kPa | 1366.4
280 K, 70151 kPa | 1417.1
280 K, 80158 kPa | 1464.6
280 K, 90164 kPa | 1509.1
280 K, 100171 kPa | 1551.2
299.99 K, 3104.6 kPa | 844.54
300 K, 601.97 kPa | 809.82
300 K, 1103.1 kPa | 817.03
300 K, 1103.4 kPa | 817.08
300 K, 4105.3 kPa | 857.55
300 K, 5106 kPa | 870.14
300 K, 5106.3 kPa | 870.12
300 K, 6106.5 kPa | 882.34
300 K, 7107.5 kPa | 894.17
300 K, 8108.1 kPa | 905.68
300 K, 9108.7 kPa | 916.91
300 K, 10109 kPa | 927.83
300 K, 12611 kPa | 954.01
300 K, 15113 kPa | 978.78
300 K, 17614 kPa | 1002.3
300 K, 20116 kPa | 1024.8
300 K, 25120 kPa | 1066.9
300 K, 30123 kPa | 1105.9
300 K, 35127 kPa | 1142.4
300 K, 40131 kPa | 1176.7
300 K, 45134 kPa | 1209.2

Reference: the NIST ThermoML archive (doi:10.1021/acs.jced.8b00202)
